# Assay results reported in ChEMBL document CHEMBL1128764, “Peptidyl aldehyde derivatives as potent and selective inhibitors of cathepsin L” (Bioorg Med Chem Lett, 1995).
# Activity calls are given as the source filed them. The calls are words filed in the database; no cut-off is given here. Where a SMILES comes first, the peptide text is derived from it. The star is where a group is joined. Cbz = O=C(OCc1ccccc1)*
# Key:
# [1] = target: T1, Calpain-2 catalytic subunit (Homo sapiens, UniProt P17655); experiment: Compound was tested for its inhibitory activity against calpain 2
# T1 sequence (P17655 whole entry): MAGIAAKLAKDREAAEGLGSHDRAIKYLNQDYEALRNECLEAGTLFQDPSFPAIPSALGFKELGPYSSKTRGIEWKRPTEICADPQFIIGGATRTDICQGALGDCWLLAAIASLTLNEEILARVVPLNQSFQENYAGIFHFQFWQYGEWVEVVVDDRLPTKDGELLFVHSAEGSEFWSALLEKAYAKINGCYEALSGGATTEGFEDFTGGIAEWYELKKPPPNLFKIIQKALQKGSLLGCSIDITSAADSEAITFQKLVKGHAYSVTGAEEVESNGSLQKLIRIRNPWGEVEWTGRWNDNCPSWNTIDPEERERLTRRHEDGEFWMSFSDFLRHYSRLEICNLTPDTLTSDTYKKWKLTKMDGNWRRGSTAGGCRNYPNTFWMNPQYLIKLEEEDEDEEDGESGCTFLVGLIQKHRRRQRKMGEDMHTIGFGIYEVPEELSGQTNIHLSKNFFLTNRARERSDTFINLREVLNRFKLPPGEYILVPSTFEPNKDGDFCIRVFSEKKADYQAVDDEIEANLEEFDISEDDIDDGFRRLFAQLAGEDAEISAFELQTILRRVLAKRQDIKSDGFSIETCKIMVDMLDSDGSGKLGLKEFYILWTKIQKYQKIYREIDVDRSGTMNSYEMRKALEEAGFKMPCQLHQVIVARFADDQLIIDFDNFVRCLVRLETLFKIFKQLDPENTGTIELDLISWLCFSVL
# Cathepsin B [2] = target: T2, Cathepsin B (Homo sapiens, UniProt P07858); experiment: Compound was tested for its inhibitory activity against cathepsin B
# [3] = Compound was tested for its inhibitory activity against cathepsin L
# Cathepsin B [4] = target: T2, Cathepsin B; experiment: Ratio of Inhibitory activity against cathepsin B/cathepsin L
# [5] = target: Chymotrypsinogen A (Bos taurus) (UniProt P00766); experiment: Compound was tested for its inhibitory activity against alpha-chymotrypsin at concentration less than 1000 ng/ml; no inhibition
# [6] = target: T1, Calpain-2 catalytic subunit; experiment: Compound was tested for its inhibitory activity against Calpain 2
SMILES,IC50 [1],IC50 (Cathepsin B [2]),IC50 [3],Ratio (Cathepsin B [4]),inhibition [5],IC50 [6]
C[C@H](NC(=O)[C@H](Cc1ccccc1)NC(=O)OCc1ccccc1)C(=O)O,–,45.1 nM,15.5 nM,2.91,inactive,–
O=C(N[C@@H](Cc1ccccc1)C(=O)N[C@@H](Cc1ccccc1)C(=O)O)OCc1ccccc1 (Cbz-Phe-Phe-OH),–,69.7 nM,0.74 nM,94.2,inactive,104 nM
COc1ccc(C[C@H](NC(=O)[C@H](Cc2ccccc2)NC(=O)OCc2ccccc2)C(=O)O)cc1 (Cbz-Phe-Tyr(Me)-OH),104 nM,97.7 nM,2.95 nM,33.1,inactive,–
O=C(N[C@@H](Cc1ccccc1)C(=O)N[C@@H](Cc1ccc(O)cc1)C(=O)O)OCc1ccccc1 (Cbz-Phe-Tyr-OH),184 nM,85.1 nM,0.85 nM,100,inactive,–
CC(=O)N[C@@H](CC(C)C)C(=O)N[C@@H](CC(C)C)C(=O)N[C@H](C=O)CCCNC(=N)N [LEUPEPTIN],–,117 nM,70.3 nM,1.66,inactive,–

# Continued by falling IC50 (Cathepsin B [2]), values first:
IC50 [1],IC50 (Cathepsin B [2]),IC50 [3],Ratio (Cathepsin B [4]),inhibition [5],IC50 [6],SMILES
79.6 nM,836 nM,6.96 nM,120,–,–,CCCCOc1ccc(C[C@H](NC(=O)[C@H](Cc2ccccc2)NC(=O)OCc2ccccc2)C(=O)O)cc1
–,17.7 nM,0.78 nM,22.7,inactive,–,CC(C)C[C@H](NC(=O)[C@H](Cc1ccccc1)NC(=O)OCc1ccccc1)C(=O)O (Cbz-Phe-Leu-OH)
